Numbers after ± are expanded uncertainties.
Details: 298.15 K; 101.33 kPa; Liquid; Vibrating tube method

SMILES	mass density
CCCC[N+](C)(CCCC)CCCC.O=S(=O)([N-]S(=O)(=O)C(F)(F)F)C(F)(F)F [tributylmethylammonium bis((trifluoromethyl)sulfonyl)imide]	1261.65 ± 6 kg/m3
c1ccccc1 [benzene]	873.71 ± 2 kg/m3
CCCCCCCC [octane]	698.86 ± 2 kg/m3
CCCCCCCCCC [decane]	726.15 ± 2 kg/m3

From the NIST ThermoML archive (doi:10.1016/j.fluid.2016.02.028)
